The numbers were not newly measured in patent US20070249572A1, “Systems and methods for the delivery of corticosteroids” (Verus Pharmaceuticals, Inc., priority 2005, published 2007), which cites them from elsewhere.

On to `CCCC1O[C@@H]2C[C@H]3[C@@H]4CCC5=CC(=O)C=C[C@]5(C)[C@H]4[C@@H](O)C[C@]3(C)[C@]2(C(=O)CO)O1` (stereo partly drawn) [budesonide, (R,S)-llβ,16α,17,21-tetrahydroxypregna-1,4-diene-3,20-dione cyclic 16,17-acetal with butyraldehyde], for which the solubility in alcohols entry (alcohols) is “readily soluble in alcohols”. The solubility in water entry (water) was “virtually insoluble in water”.
